Test results published in paper PMC10475101, “Selective steroidogenic cytochrome P450 haem iron ligation by steroid-derived isonitriles” (Communications Chemistry, 2023).
pKd: −log10 of the molar value.

Target: T1, CYP3A4 (Homo sapiens, UniProt P08684)
T1 construct: made in house
Test: in vitro
Assay type: binding
Procedure: (Adapted from DeVore, et al.)[25] Ligand interaction with the heme iron was evaluated by titrating ligands into a cuvette containing purified CYP17A1[14], CYP2D6 L230D/L231R[26], or CYP3A4[27] and measured using a UV-visible scanning spectrophotometer. Enzyme was diluted to 0.2 µM in 100 mM potassium phosphate buffer (pH 7.4), 20% glycerol, and 100 mM sodium chloride and divided equally between two 5 mL cuvettes to evaluate high-affinity binding. Ligands dissolved in dimethylsulfoxide (DMSO) were added to the sample cuvette and an equal volume of DMSO to the reference cuvette. Difference spectra were recorded from 300 to 500 nm after equilibration of enzyme and ligand. Binding to the enzyme was measured as the difference in maximal and minimal absorbance: A387—A419 for pregnanolone and 3-formyl pregnanolone, and A435—A393 for compound 1 with CYP17A1; A434—A414 for compound 1 with CYP3A4 and CYP2D6. The dissociation constant and maximum spectral change were calculated using tight-binding or quadratic equation. All data fitting was accomplished using GraphPad Prism 9. Details of fitting are provided in Supplementary Information, and numerical data used to generate graphs in Figs. 2, 4 and 5 are provided in Supplementary Data 3 in Excel format.

T1 sequence (P08684 whole entry): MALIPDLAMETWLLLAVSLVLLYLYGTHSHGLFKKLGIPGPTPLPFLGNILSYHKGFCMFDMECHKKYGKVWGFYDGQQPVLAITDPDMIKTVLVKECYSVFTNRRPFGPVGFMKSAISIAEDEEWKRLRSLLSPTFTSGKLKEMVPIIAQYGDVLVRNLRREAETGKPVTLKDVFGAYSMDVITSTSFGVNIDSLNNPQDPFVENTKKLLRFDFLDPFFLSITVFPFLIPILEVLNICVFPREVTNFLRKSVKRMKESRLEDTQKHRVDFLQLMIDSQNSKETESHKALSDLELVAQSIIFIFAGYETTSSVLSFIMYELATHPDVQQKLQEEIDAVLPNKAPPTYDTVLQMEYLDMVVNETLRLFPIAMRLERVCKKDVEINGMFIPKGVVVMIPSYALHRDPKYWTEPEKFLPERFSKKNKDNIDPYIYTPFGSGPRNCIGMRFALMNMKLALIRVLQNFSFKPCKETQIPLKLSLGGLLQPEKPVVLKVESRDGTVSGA

## [C-]#[N+][C@H](C)[C@H]1CC[C@H]2[C@@H]3CC[C@H]4C[C@@H](OC=O)CC[C@]4(C)[C@H]3CC[C@]12C [Compound 1, 3β-formyl-5α-pregnanolone-(R)-20-isonitrile]
CYP3A4, from Kd of 20-(R)-1 versus parent steroid
  contribution of Fe—C dative bond to the free energy of complexation: ~ 6 kJ/mol
CYP3A4 versus CYP17A1
  dissociation constant for CYP3A4 relative to CYP17A1: more than a billion times higher
human, pH 7.4, dissociation constant (Kd), protein 200 nM, 5 cm cuvette, tight-binding or quadratic equation, Fig. 4B: n = 3, 95% CI 120–215 nM
  pKd: 6.78
Titration of CYP3A4
  Soret shift on titration indicating Fe—CN—R bond formation: 435 nm
  difference spectrum peak indicative of Fe—CN bond formation: 435 nm
